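Results reflect a 48-hour exposure of cells in 96-well plates to compound at five concentrations. Abbreviation: GI50, concentration required for 50% inhibition of growth. At the TGI there is no net growth.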
Tests used:
Test in all cases: inhibition of tumour cell growth, NCI panel, 48 h
U251 CNS = tested on: U251 CNS
RPMI-8226 leukemia = tested on: RPMI-8226 leukemia
HOP-62 NSCLC = tested on: HOP-62 NSCLC
T-47D breast = tested on: T-47D breast
NCI-H522 lung = tested on: NCI-H522 lung
MDA-MB-435 = tested on: MDA-MB-435
MCF7 breast = tested on: MCF7 breast
MOLT-4 leukemia = tested on: MOLT-4 leukemia
A498 renal = tested on: A498 renal
SNB-75 CNS = tested on: SNB-75 CNS
SNB-19 CNS = tested on: SNB-19 CNS
SF-295 CNS = tested on: SF-295 CNS
SK-MEL-28 melanoma = tested on: SK-MEL-28 melanoma
OVCAR-5 ovarian = tested on: OVCAR-5 ovarian
SK-MEL-5 melanoma = tested on: SK-MEL-5 melanoma
LOX IMVI melanoma = tested on: LOX IMVI melanoma
KM12 colon = tested on: KM12 colon
RXF 393 renal = tested on: RXF 393 renal
OVCAR-3 ovarian = tested on: OVCAR-3 ovarian
UO-31 renal = tested on: UO-31 renal
HL-60(TB) leukemia = tested on: HL-60(TB) leukemia
OVCAR-4 ovarian = tested on: OVCAR-4 ovarian
786-0 renal = tested on: 786-0 renal
COLO 205 colon = tested on: COLO 205 colon
MALME-3M melanoma = tested on: MALME-3M melanoma
NCI/ADR-RES ovarian = tested on: NCI/ADR-RES ovarian
DU-145 prostate = tested on: DU-145 prostate
K-562 leukemia = tested on: K-562 leukemia
CAKI-1 renal = tested on: CAKI-1 renal
NCI-H460 lung = tested on: NCI-H460 lung
PC-3 prostate = tested on: PC-3 prostate
SW-620 colon = tested on: SW-620 colon
NCI-H226 lung = tested on: NCI-H226 lung
UACC-62 melanoma = tested on: UACC-62 melanoma
A549 NSCLC = tested on: A549 NSCLC
EKVX NSCLC = tested on: EKVX NSCLC
OVCAR-8 ovarian = tested on: OVCAR-8 ovarian
HT29 colon = tested on: HT29 colon
SF-539 CNS = tested on: SF-539 CNS
HCC-2998 colon = tested on: HCC-2998 colon
UACC-257 melanoma = tested on: UACC-257 melanoma
HCT-116 colon = tested on: HCT-116 colon
BT-549 breast = tested on: BT-549 breast
SK-MEL-2 melanoma = tested on: SK-MEL-2 melanoma
M14 melanoma = tested on: M14 melanoma
HCT-15 colon = tested on: HCT-15 colon
ACHN renal = tested on: ACHN renal
CCRF-CEM leukemia = tested on: CCRF-CEM leukemia
IGROV1 ovarian = tested on: IGROV1 ovarian
MDA-MB-231 breast = tested on: MDA-MB-231 breast
SN12C renal = tested on: SN12C renal
SF-268 CNS = tested on: SF-268 CNS
SR leukemia = tested on: SR leukemia
HOP-92 NSCLC = tested on: HOP-92 NSCLC

SMILES: COc1cc(-c2ccc3ncnc(NCc4ccccc4)c3c2)cnc1OC
- GI50 (U251 CNS): 77.3 µM
- TGI (U251 CNS): > 100 µM
- GI50 (RPMI-8226 leukemia): 4.38 µM
- TGI (RPMI-8226 leukemia): > 100 µM
- GI50 (HOP-62 NSCLC): 6.88 µM
- TGI (HOP-62 NSCLC): > 100 µM
- GI50 (T-47D breast): 192 nM
- TGI (T-47D breast): 2820 nM
- GI50 (NCI-H522 lung): 4.65 µM
- TGI (NCI-H522 lung): > 100 µM
- GI50 (MDA-MB-435): 56 µM
- TGI (MDA-MB-435): > 100 µM
- GI50 (MCF7 breast): 658 nM
- TGI (MCF7 breast): 19 µM
- GI50 (MOLT-4 leukemia): 3.8 µM
- TGI (MOLT-4 leukemia): > 100 µM
- GI50 (A498 renal): 1780 nM
- TGI (A498 renal): 6.64 µM
- GI50 (SNB-75 CNS): 655 nM
- TGI (SNB-75 CNS): 6.87 µM
- GI50 (SNB-19 CNS): 9.33 µM
- TGI (SNB-19 CNS): > 100 µM
- GI50 (SF-295 CNS): 3.83 µM
- TGI (SF-295 CNS): > 100 µM
- GI50 (SK-MEL-28 melanoma): 9.68 µM
- TGI (SK-MEL-28 melanoma): > 100 µM
- GI50 (OVCAR-5 ovarian): 2970 nM
- TGI (OVCAR-5 ovarian): > 100 µM
- GI50 (SK-MEL-5 melanoma): 10.7 µM
- TGI (SK-MEL-5 melanoma): > 100 µM
- GI50 (LOX IMVI melanoma): 4.19 µM
- TGI (LOX IMVI melanoma): 27.4 µM
- GI50 (KM12 colon): 50.7 µM
- TGI (KM12 colon): > 100 µM
- GI50 (RXF 393 renal): 1330 nM
- TGI (RXF 393 renal): 6.1 µM
- GI50 (OVCAR-3 ovarian): 3.94 µM
- TGI (OVCAR-3 ovarian): > 100 µM
- GI50 (UO-31 renal): 1450 nM
- TGI (UO-31 renal): > 100 µM
- GI50 (HL-60(TB) leukemia): 6.42 µM
- TGI (HL-60(TB) leukemia): > 100 µM
- GI50 (OVCAR-4 ovarian): 62.7 µM
- TGI (OVCAR-4 ovarian): > 100 µM
- GI50 (786-0 renal): 2990 nM
- TGI (786-0 renal): > 100 µM
- GI50 (COLO 205 colon): 7.48 µM
- TGI (COLO 205 colon): > 100 µM
- GI50 (MALME-3M melanoma): 9.59 µM
- TGI (MALME-3M melanoma): > 100 µM
- GI50 (NCI/ADR-RES ovarian): 7.97 µM
- TGI (NCI/ADR-RES ovarian): > 100 µM
- GI50 (DU-145 prostate): 3.43 µM
- TGI (DU-145 prostate): > 100 µM
- GI50 (K-562 leukemia): 51 µM
- TGI (K-562 leukemia): > 100 µM
- GI50 (CAKI-1 renal): 2020 nM
- TGI (CAKI-1 renal): > 100 µM
- GI50 (NCI-H460 lung): 5.83 µM
- TGI (NCI-H460 lung): > 100 µM
- GI50 (PC-3 prostate): 2790 nM
- TGI (PC-3 prostate): > 100 µM
- GI50 (SW-620 colon): 34.2 µM
- TGI (SW-620 colon): > 100 µM
- GI50 (NCI-H226 lung): 4.68 µM
- TGI (NCI-H226 lung): > 100 µM
- GI50 (UACC-62 melanoma): 2970 nM
- TGI (UACC-62 melanoma): > 100 µM
- GI50 (A549 NSCLC): 3.59 µM
- TGI (A549 NSCLC): > 100 µM
- GI50 (EKVX NSCLC): 1890 nM
- TGI (EKVX NSCLC): > 100 µM
- GI50 (OVCAR-8 ovarian): 9.42 µM
- TGI (OVCAR-8 ovarian): > 100 µM
- GI50 (HT29 colon): 5.02 µM
- TGI (HT29 colon): > 100 µM
- GI50 (SF-539 CNS): 4.8 µM
- TGI (SF-539 CNS): > 100 µM
- GI50 (HCC-2998 colon): 14.4 µM
- TGI (HCC-2998 colon): > 100 µM
- GI50 (UACC-257 melanoma): 69.8 µM
- TGI (UACC-257 melanoma): > 100 µM
- GI50 (HCT-116 colon): 13.1 µM
- TGI (HCT-116 colon): > 100 µM
- GI50 (BT-549 breast): 3.25 µM
- TGI (BT-549 breast): > 100 µM
- GI50 (SK-MEL-2 melanoma): 19.5 µM
- TGI (SK-MEL-2 melanoma): > 100 µM
- GI50 (M14 melanoma): 16.4 µM
- TGI (M14 melanoma): > 100 µM
- GI50 (HCT-15 colon): 5.68 µM
- TGI (HCT-15 colon): > 100 µM
- GI50 (ACHN renal): 2920 nM
- TGI (ACHN renal): > 100 µM
- GI50 (CCRF-CEM leukemia): 4 µM
- TGI (CCRF-CEM leukemia): > 100 µM
- GI50 (IGROV1 ovarian): 1030 nM
- TGI (IGROV1 ovarian): 3.52 µM
- GI50 (MDA-MB-231 breast): 4.72 µM
- TGI (MDA-MB-231 breast): > 100 µM
- GI50 (SN12C renal): 3.74 µM
- TGI (SN12C renal): > 100 µM
- GI50 (SF-268 CNS): 6.43 µM
- TGI (SF-268 CNS): > 100 µM
- GI50 (SR leukemia): 7.24 µM
- TGI (SR leukemia): > 100 µM
- GI50 (HOP-92 NSCLC): 544 nM
- TGI (HOP-92 NSCLC): 4.82 µM

Source: PubChem BioAssay (NCI)
